Measured values from patent US8211922B2, “1-methylnicotinamide derivatives and formulations for treatment of lipoprotein abnormalities” (Cortria Corporation, priority 2005, dated 2012).

Test system: dyslipidemic patients
Experiment: Anti-atherogenic effect of MNA after long term use (13 months), plasma lipids in patients
Assay type: in vivo, human
Procedure: The anti-atherogenic effect of MNA was investigated in 2 dyslipidemic patients. The enrollment criteria was: high level of TG (≧250 mg/dl) and/or high level of TC (≧200 mg/dl). The patients were treated with MNA for 13 months. The MNA was administered orally, two times a day (50 mg MNA) after meal.
The plasma levels of TC, TG, and HDL were measured at baseline and during the therapy. The level of LDL was measured in those cases where it was possible (due to high TG level).

[1] = 2 dyslipidemic patients, 50 mg MNA orally two times a day, 13 months
[2] = Patient 1, change vs time 0, 1.5 months
[3] = Patient 1, change vs time 0, 6 months
[4] = Patient 1, change vs time 0, 12 months
[5] = Patient 2, change vs time 0, 7 months

How did the TC level [1] turn out when 1-methylnicotinamide chloride [MNA] was run?
Its TC level is “reduced significantly”.

And the TG level [1]?
The TG level was “reduced significantly”.

What about the HDL levels (2 dyslipidemic patients, after only a few months of therapy) of the same substance?
The HDL levels was “increase”.

And the TG/HDL ratio (2 dyslipidemic patients, long term use)?
The TG/HDL ratio was “reduction”.

What about the TG (Patient 1, 50 mg MNA orally two times a day, 1.5 months) of the same substance?
Its TG is 218 mg/dL.

What about the TG (Patient 1, 50 mg MNA orally two times a day, 6 months) of the same substance?
Its TG is 255 mg/dL.

What about the TG (Patient 1, 50 mg MNA orally two times a day, 12 months) of the same substance?
Its TG is 315 mg/dL.

What about the HDL (Patient 1, 1.5 months) of the same substance?
The HDL was 28.0 mg/dL.

What about the LDL (Patient 1, 1.5 months) of the same substance?
Its LDL is 81.4 mg/dL.

And the TG/HDL (Patient 1, 1.5 months)?
Its TG/HDL is 7.79.

What about the “Total Cholesterol” value (Patient 1, 1.5 months) of the same substance?
Its value is 153 mg/dL.

What about the HDL (Patient 1, 6 months) of the same substance?
The HDL was 38.6 mg/dL.

And the LDL (Patient 1, 6 months)?
The LDL was 87.0 mg/dL.

What about the TG/HDL (Patient 1, 6 months) of the same substance?
Its TG/HDL is 6.61.

And the “Total Cholesterol” value (Patient 1, 6 months)?
Its value is 177 mg/dL.

What about the HDL (Patient 1, 12 months) of the same substance?
The HDL was 48.1 mg/dL.

And the LDL (Patient 1, 12 months)?
Its LDL is 118.0 mg/dL.

What about the TG/HDL (Patient 1, 12 months) of the same substance?
The TG/HDL was 6.55.

What about the “Total Cholesterol” value (Patient 1, 12 months) of the same substance?
Its value is 229 mg/dL.

And the HDL % [2]?
The HDL % was −8.79%.

What about the TG % [2] of the same substance?
Its TG % is −77.39%.

And the TG/HDL % [2]?
The TG/HDL % was −75.21%.

What about the “Total Cholesterol %” value [2] of the same substance?
Its value is −48.66%.

And the HDL % [3]?
Its HDL % is 25.73%.

And the TG % [3]?
Its TG % is −73.55%.

And the TG/HDL % [3]?
Its TG/HDL % is −78.96%.

And the “Total Cholesterol %” value [3]?
The value was −40.60%.

And the HDL % [4]?
Its HDL % is 56.68%.

What about the TG % [4] of the same substance?
The TG % was −67.32%.

And the TG/HDL % [4]?
The TG/HDL % was −79.14%.

What about the “Total Cholesterol %” value [4] of the same substance?
The value was −23.15%.

And the TG (Patient 2, 50 mg MNA orally two times a day, 7 months)?
Its TG is 269 mg/dL.

What about the TG (Patient 2, 50 mg MNA orally two times a day, 13 months) of the same substance?
Its TG is 160 mg/dL.

And the HDL (Patient 2, 7 months)?
The HDL was 79.0 mg/dL.

What about the LDL (Patient 2, 7 months) of the same substance?
Its LDL is 128.0 mg/dL.

What about the TG/HDL (Patient 2, 7 months) of the same substance?
The TG/HDL was 3.41.

And the “Total Cholesterol” value (Patient 2, 7 months)?
The value was 261 mg/dL.

And the HDL (Patient 2, 13 months)?
Its HDL is 70.8 mg/dL.

What about the LDL (Patient 2, 13 months) of the same substance?
The LDL was 106.8 mg/dL.

And the TG/HDL (Patient 2, 13 months)?
Its TG/HDL is 2.26.

What about the “Total Cholesterol” value (Patient 2, 13 months) of the same substance?
Its value is 210 mg/dL.

And the HDL % [5]?
Its HDL % is 79.55%.

And the LDL % [5]?
The LDL % was −53.11%.

What about the TG % [5] of the same substance?
Its TG % is −10.93%.

What about the TG/HDL % [5] of the same substance?
The TG/HDL % was −50.39%.

And the “Total Cholesterol %” value [5]?
The value was −28.49%.

And the HDL % (Patient 2, change vs time 0, 13 months)?
The HDL % was 60.91%.
